Tested on: subjects with moderate-to-severe plaque psoriasis
Experiment: Hematology and chemistry laboratory values by CTCAE grade
Type: in vivo, human
Conditions: through Week 56
From the text: The proportion of participants who discontinued study intervention due to one or more AEs was low (n=4). All events were singular in nature with no apparent dose-dependent increase (Table 48 and Table 52). The number of participants with abnormal hematology and chemistry laboratory values with CTCAE toxicity grade≥3 were low through the end of the study (Table 43 through Table 46). There was no apparent dose-dependent increase in laboratory abnormality occurrences.

CC(=O)NCCCC[C@@H]1NC(=O)[C@H](Cc2c[nH]c3c(C)cccc23)NC(=O)[C@H]([C@@H](C)O)NC(=O)[C@H](CC(N)=O)NC(=O)[C@@H](NC(C)=O)C(C)(C)SSC(C)(C)[C@@H](C(=O)N[C@@H](Cc2ccc(OCCN)cc2)C(=O)N[C@@H](Cc2ccc3ccccc3c2)C(=O)NC2(C(=O)N[C@@H](CCC(=O)O)C(=O)N[C@@H](CC(N)=O)C(=O)N[C@@H](Cc3cccnc3)C(=O)N(C)CC(N)=O)CCOCC2)NC1=O [IL-23 receptor antagonist peptide, Ac-[Pen]*-N-T-[W(7-Me)]-[Lys(Ac)]-[Pen]*-Phe[4-(2-aminoethoxy)]-[2-Nal]-[THP]-E-N-[3-Pal]-Sarc-NH2 (*[Pen]-[Pen]* formdisulfidebond)]
7: Alanine Aminotransferase (increased): Subjects with Grade 1 (25 mg QD)
5: Aspartate Aminotransferase (increased): Subjects with Grade 1 (25 mg QD) | Gamma Glutamyl Transferase (increased): Subjects with Grade 1 (25 mg QD) | Gamma Glutamyl Transferase (increased): Subjects with postbaseline maximum toxicity grade >0 (25 mg QD)
9: Alanine Aminotransferase (increased): Subjects with postbaseline maximum toxicity grade >0 (25 mg QD)
8: Triglycerides (increased): Subjects with postbaseline maximum toxicity grade >0 (25 mg BID)
0: Alanine Aminotransferase (increased): Subjects with Grade 3 (25 mg BID) | Alanine Aminotransferase (increased): Subjects with Grade 4 (25 mg BID) | Albumin (decreased): Subjects with Grade 1 (25 mg BID) | Albumin (decreased): Subjects with Grade 2 (25 mg BID) | Albumin (decreased): Subjects with Grade 3 (25 mg BID) | Albumin (decreased): Subjects with Grade 4 (25 mg BID) | Albumin (decreased): Subjects with postbaseline maximum toxicity grade >0 (25 mg BID) | Alkaline Phosphatase (increased): Subjects with Grade 2 (25 mg BID) | Alkaline Phosphatase (increased): Subjects with Grade 3 (25 mg BID) | Alkaline Phosphatase (increased): Subjects with Grade 4 (25 mg BID) | Aspartate Aminotransferase (increased): Subjects with Grade 3 (25 mg BID) | Aspartate Aminotransferase (increased): Subjects with Grade 4 (25 mg BID) | Calcium corrected (decreased): Subjects with Grade 2 (25 mg BID) | Calcium corrected (decreased): Subjects with Grade 3 (25 mg BID) | Calcium corrected (decreased): Subjects with Grade 4 (25 mg BID) | Calcium corrected (increased): Subjects with Grade 1 (25 mg BID) | Calcium corrected (increased): Subjects with Grade 2 (25 mg BID) | Calcium corrected (increased): Subjects with Grade 3 (25 mg BID) | Calcium corrected (increased): Subjects with Grade 4 (25 mg BID) | Calcium corrected (increased): Subjects with postbaseline maximum toxicity grade >0 (25 mg BID) | Cholesterol (increased): Subjects with Grade 2 (25 mg BID) | Cholesterol (increased): Subjects with Grade 3 (25 mg BID) | Cholesterol (increased): Subjects with Grade 4 (25 mg BID) | Creatinine (increased): Subjects with Grade 1 (25 mg BID) | Creatinine (increased): Subjects with Grade 2 (25 mg BID) | Creatinine (increased): Subjects with Grade 3 (25 mg BID) | Creatinine (increased): Subjects with Grade 4 (25 mg BID) | Creatinine (increased): Subjects with postbaseline maximum toxicity grade >0 (25 mg BID) | Gamma Glutamyl Transferase (increased): Subjects with Grade 2 (25 mg BID) | Gamma Glutamyl Transferase (increased): Subjects with Grade 3 (25 mg BID) | Gamma Glutamyl Transferase (increased): Subjects with Grade 4 (25 mg BID) | Glucose (decreased): Subjects with Grade 2 (25 mg BID) | Glucose (decreased): Subjects with Grade 3 (25 mg BID) | Glucose (decreased): Subjects with Grade 4 (25 mg BID) | Hemoglobin (g/L) (decreased): subjects with Grade 1 (25 mg BID) | Hemoglobin (g/L) (decreased): subjects with Grade 2 (25 mg BID) | Hemoglobin (g/L) (decreased): subjects with Grade 3 (25 mg BID) | Hemoglobin (g/L) (decreased): subjects with Grade 4 (25 mg BID) | Hemoglobin (g/L) (decreased): subjects with postbaseline maximum toxicity grade >0 (25 mg BID) | Hemoglobin (g/L) (increased): subjects with Grade 2 (25 mg BID) | Hemoglobin (g/L) (increased): subjects with Grade 3 (25 mg BID) | Hemoglobin (g/L) (increased): subjects with Grade 4 (25 mg BID) | Lymphocytes (×10^9/L) (decreased): subjects with Grade 3 (25 mg BID) | Lymphocytes (×10^9/L) (decreased): subjects with Grade 4 (25 mg BID) | Lymphocytes (×10^9/L) (increased): subjects with Grade 1 (25 mg BID) | Lymphocytes (×10^9/L) (increased): subjects with Grade 3 (25 mg BID) | Lymphocytes (×10^9/L) (increased): subjects with Grade 4 (25 mg BID) | Magnesium (decreased): Subjects with Grade 1 (25 mg BID) | Magnesium (decreased): Subjects with Grade 2 (25 mg BID) | Magnesium (decreased): Subjects with Grade 3 (25 mg BID) | Magnesium (decreased): Subjects with Grade 4 (25 mg BID) | Magnesium (decreased): Subjects with postbaseline maximum toxicity grade >0 (25 mg BID) | Magnesium (increased): Subjects with Grade 2 (25 mg BID) | Magnesium (increased): Subjects with Grade 3 (25 mg BID) | Magnesium (increased): Subjects with Grade 4 (25 mg BID) | Neutrophils (×10^9/L) (decreased): subjects with Grade 3 (25 mg BID) | Neutrophils (×10^9/L) (decreased): subjects with Grade 4 (25 mg BID) | Platelets (×10^9/L) (decreased): subjects with Grade 2 (25 mg BID) | Platelets (×10^9/L) (decreased): subjects with Grade 3 (25 mg BID) | Platelets (×10^9/L) (decreased): subjects with Grade 4 (25 mg BID) | Potassium (decreased): Subjects with Grade 1 (25 mg BID) | Potassium (decreased): Subjects with Grade 2 (25 mg BID) | Potassium (decreased): Subjects with Grade 3 (25 mg BID) | Potassium (decreased): Subjects with Grade 4 (25 mg BID) | Potassium (decreased): Subjects with postbaseline maximum toxicity grade >0 (25 mg BID) | Potassium (increased): Subjects with Grade 2 (25 mg BID) | Potassium (increased): Subjects with Grade 3 (25 mg BID) | Potassium (increased): Subjects with Grade 4 (25 mg BID) | Sodium (decreased): Subjects with Grade 1 (25 mg BID) | Sodium (decreased): Subjects with Grade 2 (25 mg BID) | Sodium (decreased): Subjects with Grade 3 (25 mg BID) | Sodium (decreased): Subjects with Grade 4 (25 mg BID) | Sodium (decreased): Subjects with postbaseline maximum toxicity grade >0 (25 mg BID) | Sodium (increased): Subjects with Grade 2 (25 mg BID) | Sodium (increased): Subjects with Grade 3 (25 mg BID) | Sodium (increased): Subjects with Grade 4 (25 mg BID) | Total Bilirubin (increased): Subjects with Grade 2 (25 mg BID) | Total Bilirubin (increased): Subjects with Grade 3 (25 mg BID) | Total Bilirubin (increased): Subjects with Grade 4 (25 mg BID) | Triglycerides (increased): Subjects with Grade 3 (25 mg BID) | WBC (×10^9/L) (decreased): subjects with Grade 3 (25 mg BID) | WBC (×10^9/L) (decreased): subjects with Grade 4 (25 mg BID) | WBC (×10^9/L) (increased): subjects with Grade 1 (25 mg BID) | WBC (×10^9/L) (increased): subjects with Grade 2 (25 mg BID) | WBC (×10^9/L) (increased): subjects with Grade 3 (25 mg BID) | WBC (×10^9/L) (increased): subjects with Grade 4 (25 mg BID) | WBC (×10^9/L) (increased): subjects with postbaseline maximum toxicity grade >0 (25 mg BID) | Alanine Aminotransferase (increased): Subjects with Grade 4 (25 mg QD) | Albumin (decreased): Subjects with Grade 1 (25 mg QD) | Albumin (decreased): Subjects with Grade 2 (25 mg QD) | Albumin (decreased): Subjects with Grade 3 (25 mg QD) | Albumin (decreased): Subjects with Grade 4 (25 mg QD) | Albumin (decreased): Subjects with postbaseline maximum toxicity grade >0 (25 mg QD) | Alkaline Phosphatase (increased): Subjects with Grade 2 (25 mg QD) | Alkaline Phosphatase (increased): Subjects with Grade 3 (25 mg QD) | Alkaline Phosphatase (increased): Subjects with Grade 4 (25 mg QD) | Aspartate Aminotransferase (increased): Subjects with Grade 3 (25 mg QD) | Aspartate Aminotransferase (increased): Subjects with Grade 4 (25 mg QD) | Calcium corrected (decreased): Subjects with Grade 2 (25 mg QD) | Calcium corrected (decreased): Subjects with Grade 3 (25 mg QD) | Calcium corrected (decreased): Subjects with Grade 4 (25 mg QD) | Calcium corrected (increased): Subjects with Grade 1 (25 mg QD) | Calcium corrected (increased): Subjects with Grade 2 (25 mg QD) | Calcium corrected (increased): Subjects with Grade 3 (25 mg QD) | Calcium corrected (increased): Subjects with Grade 4 (25 mg QD) | Calcium corrected (increased): Subjects with postbaseline maximum toxicity grade >0 (25 mg QD) | Cholesterol (increased): Subjects with Grade 2 (25 mg QD) | Cholesterol (increased): Subjects with Grade 3 (25 mg QD) | Cholesterol (increased): Subjects with Grade 4 (25 mg QD) | Creatinine (increased): Subjects with Grade 2 (25 mg QD) | Creatinine (increased): Subjects with Grade 3 (25 mg QD) | Creatinine (increased): Subjects with Grade 4 (25 mg QD) | Gamma Glutamyl Transferase (increased): Subjects with Grade 2 (25 mg QD) | Gamma Glutamyl Transferase (increased): Subjects with Grade 3 (25 mg QD) | Gamma Glutamyl Transferase (increased): Subjects with Grade 4 (25 mg QD) | Glucose (decreased): Subjects with Grade 2 (25 mg QD) | Glucose (decreased): Subjects with Grade 3 (25 mg QD) | Glucose (decreased): Subjects with Grade 4 (25 mg QD) | Hemoglobin (g/L) (decreased): subjects with Grade 2 (25 mg QD) | Hemoglobin (g/L) (decreased): subjects with Grade 3 (25 mg QD) | Hemoglobin (g/L) (decreased): subjects with Grade 4 (25 mg QD) | Hemoglobin (g/L) (increased): subjects with Grade 2 (25 mg QD) | Hemoglobin (g/L) (increased): subjects with Grade 3 (25 mg QD) | Hemoglobin (g/L) (increased): subjects with Grade 4 (25 mg QD) | Lymphocytes (×10^9/L) (decreased): subjects with Grade 1 (25 mg QD) | Lymphocytes (×10^9/L) (decreased): subjects with Grade 2 (25 mg QD) | Lymphocytes (×10^9/L) (decreased): subjects with Grade 3 (25 mg QD) | Lymphocytes (×10^9/L) (decreased): subjects with Grade 4 (25 mg QD) | Lymphocytes (×10^9/L) (decreased): subjects with postbaseline maximum toxicity grade >0 (25 mg QD) | Lymphocytes (×10^9/L) (increased): subjects with Grade 1 (25 mg QD) | Lymphocytes (×10^9/L) (increased): subjects with Grade 2 (25 mg QD) | Lymphocytes (×10^9/L) (increased): subjects with Grade 3 (25 mg QD) | Lymphocytes (×10^9/L) (increased): subjects with Grade 4 (25 mg QD) | Lymphocytes (×10^9/L) (increased): subjects with postbaseline maximum toxicity grade >0 (25 mg QD) | Magnesium (decreased): Subjects with Grade 1 (25 mg QD) | Magnesium (decreased): Subjects with Grade 2 (25 mg QD) | Magnesium (decreased): Subjects with Grade 3 (25 mg QD) | Magnesium (decreased): Subjects with Grade 4 (25 mg QD) | Magnesium (decreased): Subjects with postbaseline maximum toxicity grade >0 (25 mg QD) | Magnesium (increased): Subjects with Grade 2 (25 mg QD) | Magnesium (increased): Subjects with Grade 3 (25 mg QD) | Magnesium (increased): Subjects with Grade 4 (25 mg QD) | Neutrophils (×10^9/L) (decreased): subjects with Grade 2 (25 mg QD) | Neutrophils (×10^9/L) (decreased): subjects with Grade 3 (25 mg QD) | Neutrophils (×10^9/L) (decreased): subjects with Grade 4 (25 mg QD)

Reference: US20260232767A1, “INTERLEUKIN-23 RECEPTOR ANTAGONIST PEPTIDES FOR USE IN THE TREATMENT OF PSORIASIS” (Janssen Pharmaceutica NV, priority 2023, published 2026)
